From US20220144812A1, “QUINOLINE DERIVATIVES AND THEIR USE FOR THE TREATMENT OF CANCER” (Epizyme, Inc., priority 2019, published 2022) come the findings set out here.

Like-named read-outs stand apart in the source and are kept apart here.

One experiment addresses T1, EP300 (P300(1048-1664)) (Homo sapiens, UniProt Q09472).
T1 construct: P300(1048-1664)
T1 sequence (Q09472 1048-1664): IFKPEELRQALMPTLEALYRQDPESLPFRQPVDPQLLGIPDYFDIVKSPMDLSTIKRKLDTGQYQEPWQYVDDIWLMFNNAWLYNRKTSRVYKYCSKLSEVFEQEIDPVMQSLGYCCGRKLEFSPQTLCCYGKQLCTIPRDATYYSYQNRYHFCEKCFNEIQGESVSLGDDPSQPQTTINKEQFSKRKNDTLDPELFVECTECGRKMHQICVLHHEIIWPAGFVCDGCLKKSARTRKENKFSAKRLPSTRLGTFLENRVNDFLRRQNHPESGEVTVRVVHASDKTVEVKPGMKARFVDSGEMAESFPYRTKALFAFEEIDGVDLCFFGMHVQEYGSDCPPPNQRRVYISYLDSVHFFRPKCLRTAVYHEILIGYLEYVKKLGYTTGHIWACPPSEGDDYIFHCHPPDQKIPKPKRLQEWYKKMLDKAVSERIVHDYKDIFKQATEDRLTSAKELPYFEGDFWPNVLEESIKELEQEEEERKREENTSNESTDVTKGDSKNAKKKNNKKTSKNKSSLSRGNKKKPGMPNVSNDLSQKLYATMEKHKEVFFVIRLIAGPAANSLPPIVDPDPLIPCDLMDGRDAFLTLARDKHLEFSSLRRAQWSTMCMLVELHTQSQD
Kind of experiment: Biochemical assay for EP300, SAMDI. The following applies: read-out: EP300 Biochemistry IC50. The text has this:
The following example describes materials and methods relating to a biochemical assay for EP300. IC50 values (micromolar (μM)) are summarized in Table 1, Table 2, and Table 3 under the column labeled: “EP300 Biochemistry IC50 (micromolar).”

Experiment [1] has as its system H3K18Ac in HB-CLS-2 cells. As to the kind of experiment: H3K18AC in-cell western (ICW) assay. The experiment is classed as cell-based. The following applies: read-out: CREBBP ICW IC50. The method, boiled down:
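In-cell western: after methanol fixation, blocking, overnight 4° C anti-H3K18Ac staining, then 800CW secondary plus DRAQ5 for DNA content, integrated intensities were scanned at 800 and 700 nm. Before this, compound exposure lasted 2 hr at 37° C in HB-CLS-2 cells plated 16–24 hours earlier. Values expressed as IC50 (μM).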

In another experiment the test system is 647V cells. Kind of experiment: High throughput proliferation (HTP) assay. In kind it is cell-based. Particulars: read-out: CREBBP HTP IC50. The method, boiled down: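 Proliferation IC50 (micromolar) derived from a 7-day CellTiter-Glo viable-cell readout in 647V cells exposed, in triplicate, to rising compound concentrations; cells grown in DMEM plus 15% heat-inactivated FBS at 37° C under 5% CO2.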

A further experiment concerns the target T2, CREBBP (1084-1701) (Homo sapiens, UniProt Q92793).
T2 construct: measured in the following biochemical assay using CREBBP (1084-1701); purchased
Kind of experiment: Biochemical assay for CREBBP (1084-1701), SAMDI. The following applies: read-out: CREBBP Biochemistry IC50. The method, boiled down: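 Acetyltransferase activity measured by SAMDI mass spectrometry after capture on biochip. Enzyme sat with compound 30 min at RT before acetyl-CoA and biotinylated H3 11-25 (K14R, K23R) peptide were added for 30 min at RT. Formic acid quench, bicarbonate neutralisation; IC50 values reported.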

Setting [2] is: Homo sapiens, 647-V, high throughput proliferation.
The mark [3] stands for this setting: P300(1048-1664), Peptide #233, Ac-CoA, SAMDI mass spectrometry.
The mark [4] stands for this setting: 2 h, H3K18Ac in HB-CLS-2 cells, 2 hrs compound incubation.
Setting [5] is: Homo sapiens, 647-V, 168 h, 647V cells, day 7, CellTiter-Glo.
Setting [6] is: Peptide #233, Acetyl-CoA, SAMDI mass spectrometry.

T2 sequence (Q92793 1084-1701): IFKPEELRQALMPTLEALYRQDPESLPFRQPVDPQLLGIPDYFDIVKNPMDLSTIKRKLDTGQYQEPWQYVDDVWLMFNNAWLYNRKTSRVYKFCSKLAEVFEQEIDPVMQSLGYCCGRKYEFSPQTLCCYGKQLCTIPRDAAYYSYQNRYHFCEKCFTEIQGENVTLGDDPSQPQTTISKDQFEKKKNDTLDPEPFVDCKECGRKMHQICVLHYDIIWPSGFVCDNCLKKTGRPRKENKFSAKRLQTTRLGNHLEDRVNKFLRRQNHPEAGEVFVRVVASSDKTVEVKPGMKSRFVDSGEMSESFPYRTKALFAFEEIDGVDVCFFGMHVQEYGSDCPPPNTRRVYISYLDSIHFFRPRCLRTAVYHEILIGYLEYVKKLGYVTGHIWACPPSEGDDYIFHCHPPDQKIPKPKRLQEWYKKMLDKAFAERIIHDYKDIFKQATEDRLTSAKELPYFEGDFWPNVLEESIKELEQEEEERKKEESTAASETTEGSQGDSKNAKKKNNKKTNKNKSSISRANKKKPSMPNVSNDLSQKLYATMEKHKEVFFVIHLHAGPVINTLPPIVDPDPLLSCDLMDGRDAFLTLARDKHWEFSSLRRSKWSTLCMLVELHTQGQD

In the case of `CCn1ncc(CN(C)C(=O)c2cc(-c3cc(NCCN(C)C)cc(C)n3)nc3ccc(Cl)cc23)c1C` [Compound 570], the 50% inhibitory concentration (IC50) at EP300 (P300(1048-1664)) (EP300, SAMDI) was determined as 13.7 nM; in experiment [1] (H3K18Ac in-cell western) it was 76.3 nM; in the experiment on 647V cells (setting [2]), 30.1 nM; on CREBBP (1084-1701) (SAMDI), 45 nM.
For the compound `CCn1ncc(CN(C)C(=O)c2nc(-c3ccc(OCCNC)c(Cl)c3)nc3ccc(CS(C)(=O)=O)cc23)c1C` [Compound 503], the IC50 on EP300 (P300(1048-1664)) (EP300, SAMDI) is 9280 nM; in experiment [1] (H3K18Ac in-cell western), 17100 nM; in the experiment on 647V cells (setting [2]), 7610 nM; on CREBBP (1084-1701) (SAMDI) it was 9850 nM.
With `CCn1ncc(CN(C)C(=O)c2nc(-c3cc(Cl)cc(NC(=O)NC)c3)nc3ccc(Cl)cc23)c1C` [Compound 34], the half-inhibitory concentration (IC50) at EP300 (P300(1048-1664)) (EP300, SAMDI) amounted to 3.2 nM; in experiment [1] (H3K18Ac in-cell western) it was 270 nM; in the experiment on 647V cells (setting [2]), 200 nM; on CREBBP (1084-1701) (SAMDI), 3.2 nM.
With `CCn1ncc(CN(C)C(=O)c2nc(-c3cc4[nH]ncc4cc3C)nc3ccc(Cl)cc23)c1C` [Compound 10], the IC50 at EP300 (P300(1048-1664)) (EP300, SAMDI) is 8.4 nM; in experiment [1] (H3K18Ac in-cell western) it was 93 nM; in the experiment on 647V cells (setting [2]), 77 nM; at CREBBP (1084-1701) (SAMDI), 22 nM.
Consider `CCn1ncc(CN(C)C(=O)c2nc(-c3cc(C)c4c(c3)NC(=O)C4)nc3ccc(Cl)cc23)c1C` [Compound 463], for which the half-inhibitory concentration (IC50) came to 993 nM on EP300 (P300(1048-1664)) (EP300, SAMDI); 1400 nM in experiment [1] (H3K18Ac in-cell western); 1510 nM in the experiment on 647V cells (setting [2]); 2570 nM at CREBBP (1084-1701) (SAMDI).
Take `CCc1ncc(CN(C)C(=O)c2cc(-c3ccc(NCCN(C)C)c(C)n3)nc3ccc(COC)cc23)n1C` [Compound 637]: the half-inhibitory concentration (IC50) was 34.4 nM on EP300 (P300(1048-1664)) (setting [3]), 420 nM in experiment [1] (setting [4]), 295 nM in the experiment on 647V cells (setting [5]) and 98.7 nM at CREBBP (1084-1701) (setting [6]).
On to `CCn1ncc([C@H](C)N(C)C(=O)c2cc(-c3ccc(NCCNC)c(C)n3)nc3ccc(Cl)cc23)c1C` [Compound 607], for which the IC50 at EP300 (P300(1048-1664)) (EP300, SAMDI) was determined as 3380 nM; in experiment [1] (H3K18Ac in-cell western), 3270 nM; with 647V cells (setting [2]) it was 1970 nM; at CREBBP (1084-1701) (SAMDI), 6510 nM.
For the compound `CCc1nc(-c2cc(C(=O)N(C)Cc3cnn(CC)c3C)c3cc(Cl)ccc3n2)ccc1NCCN(C)C` [Compound 573], the 50% inhibitory concentration (IC50) came out at 45.4 nM on EP300 (P300(1048-1664)) (EP300, SAMDI); 52.7 nM in experiment [1] (H3K18Ac in-cell western); 49.3 nM in the experiment on 647V cells (setting [2]); 46.5 nM at CREBBP (1084-1701) (SAMDI).
Take `CCCOc1ccc(-c2nc(C(=O)N(C)Cc3cnn(CC)c3C)c3cc(Cl)ccc3n2)cc1Cl` [Compound 157]: the IC50 came out at 2800 nM on EP300 (P300(1048-1664)) (EP300, SAMDI); 9600 nM in experiment [1] (H3K18Ac in-cell western); 5600 nM in the experiment on 647V cells (high throughput proliferation); 3200 nM at CREBBP (1084-1701) (SAMDI).
As for `CCc1ncc(CN(C)C(=O)c2cc(-c3cc4n[nH]cc4cn3)nc3ccc(COC)cc23)n1C` [Compound 510], the IC50 is 9.3 nM at EP300 (P300(1048-1664)) (EP300, SAMDI); 225 nM in experiment [1] (H3K18Ac in-cell western); 465 nM in the experiment on 647V cells (setting [2]); 62.9 nM on CREBBP (1084-1701) (SAMDI).
The corresponding values for `CCn1ncc(CN(C)C(=O)c2nc(N3CCc4cn[nH]c4C3)nc3ccc(Cl)cc23)c1C` [Compound 161] are 6200 nM, 11000 nM, 11000 nM and 17000 nM.
For `CCc1nn(C)c(CN(C)C(=O)c2cc(-c3ccc(NCCNC)c(C)n3)nc3ccc(Cl)cc23)c1C` [Compound 586], the IC50 at EP300 (P300(1048-1664)) (EP300, SAMDI) stood at 23300 nM; in experiment [1] (H3K18Ac in-cell western), 7240 nM; in the experiment with 647V cells (setting [2]) it was 2130 nM; on CREBBP (1084-1701) (SAMDI), 19400 nM.
The corresponding values for `CCn1ncc([C@@H](C)N(C)C(=O)c2cc(-c3ccc(NCCN(C)C)c(C)n3)nc3ccc(Cl)cc23)c1C` [Compound 610] are 20.9 nM, 85 nM, 37.8 nM and 59.6 nM.
The like results for `CCc1noc(C(C)N(C)C(=O)c2nc(-c3ccc(NCCN(C)C)c(C)c3)nc3ccc(Cl)cc23)c1C` (centres unmarked) [Compound 606] were, in that order, 14 nM, 294 nM, 80.7 nM and 30.3 nM.
Take `CCn1ncc(CN(C)C(=O)c2nc(-c3ccc(OCCCNC)c(C(C)C)c3)nc3ccc(Cl)cc23)c1C` [Compound 440]: the half-maximal inhibitory concentration (IC50) stood at 937 nM at EP300 (P300(1048-1664)) (EP300, SAMDI); 2050 nM in experiment [1] (H3K18Ac in-cell western); 991 nM in the experiment on 647V cells (setting [2]); 88.2 nM at CREBBP (1084-1701) (SAMDI).
As to `CCn1ncc(CN(C)C(=O)c2nc(-c3cc(C)cc(NC4CNCC4(F)F)c3)nc3ccc(Cl)cc23)c1C` (centres unmarked) [Compound 554], the concentration for half-maximal inhibition (IC50) came out at 173 nM at EP300 (P300(1048-1664)) (EP300, SAMDI); 1070 nM in experiment [1] (H3K18Ac in-cell western); 1670 nM with 647V cells (setting [2]); 53.5 nM at CREBBP (1084-1701) (SAMDI).
The corresponding values for `CCn1ncc(CN(C)C(=O)c2cc(-n3ncc4c3CNCC4)nc3ccc(Cl)cc23)c1C` [Compound 186] are 64000 nM, 20000 nM, 7800 nM and 114000 nM.
As to `CCn1ncc(CN(C)C(=O)c2nc(-c3ccc(OCCCO)cc3C)nc3ccc(Cl)cc23)c1C` [Compound 53], the IC50 was determined as 280 nM at EP300 (P300(1048-1664)) (EP300, SAMDI); 570 nM in experiment [1] (H3K18Ac in-cell western); 460 nM with 647V cells (setting [2]); 130 nM on CREBBP (1084-1701) (SAMDI).
As to `CCn1ncc(CN(C)C(=O)c2cc(-c3ccc(NCCN(C)C)c(C(F)(F)F)n3)nc3ccc(Cl)cc23)c1C` [Compound 619], the IC50 amounted to 14.5 nM on EP300 (P300(1048-1664)) (EP300, SAMDI); 59.9 nM in experiment [1] (H3K18Ac in-cell western); 32.5 nM in the experiment with 647V cells (setting [2]); 23.8 nM at CREBBP (1084-1701) (SAMDI).
As for `CCn1ncc(CN(C)C(=O)c2cc(-c3ccnc(N)c3)nc3ccc(Cl)cc23)c1C` [Compound 94], the IC50 on EP300 (P300(1048-1664)) (EP300, SAMDI) was 1500 nM; in experiment [1] (H3K18Ac in-cell western), 1700 nM; with 647V cells (setting [2]), 1500 nM; on CREBBP (1084-1701) (SAMDI), 2100 nM.
As for `CCn1ncc(CN(C)C(=O)c2nc(-c3cc(C(=O)NC)n(C)n3)nc3ccc(C4CC4)cc23)c1C` [Compound 638], the IC50 came to 66.2 nM on EP300 (P300(1048-1664)) (setting [3]), 124 nM in experiment [1] (setting [4]), 357 nM in the experiment on 647V cells (setting [5]) and 116 nM on CREBBP (1084-1701) (setting [6]).
Consider `CCn1ncc(CN(C)C(=O)c2cc(-c3ccc4c[nH]nc4n3)nc3ccc(Cl)cc23)c1C` [Compound 386], for which the IC50 is 10 nM at EP300 (P300(1048-1664)) (EP300, SAMDI); 200 nM in experiment [1] (H3K18Ac in-cell western, HB-CLS-2 cells); 310 nM in the experiment on 647V cells (Homo sapiens, 647-V, high throughput proliferation, 647V cells); 15 nM on CREBBP (1084-1701) (SAMDI).
As to `CCn1ncc(CN(C)C(=O)c2nc(-c3ccc(O[C@@H]4CNC[C@H]4O)cc3Cl)nc3ccc(Cl)cc23)c1C` [Compound 38], the concentration for half-maximal inhibition (IC50) came to 12 nM at EP300 (P300(1048-1664)) (EP300, SAMDI); 330 nM in experiment [1] (H3K18Ac in-cell western); 230 nM in the experiment with 647V cells (setting [2]); 34 nM at CREBBP (1084-1701) (SAMDI).

Usually IC50 stands for the concentration that gives 50% inhibition.
